Test results as given in article PMC4254008 (European journal of medicinal chemistry, 2014).

How the values were obtained:
[1] = tested on: Staphylococcus aureus enoyl-ACP reductase (saFabI); settings: cited from earlier work
[2] = tested on: MRSA strain BAA1762; experiment: S. aureus thigh muscle infection model, in vivo efficacy; design: species or system Swiss Webster mice; settings: mouse thigh muscle infection model
[3] = tested on: S. aureus infected thigh muscles; settings: in vivo; cited from earlier work
[4] = orally ingested, humans; cited from earlier work
[5] = in vivo; cited from earlier work

CCCCCCc1ccc(Oc2ccccc2C#N)c(O)c1 [PT119]
residence time ([1]; on saFabI): 750 min
Ki ([1]; saFabI): 10 pM
reduction in the CFU's [2]: 3 log

[^18F]FDG
accumulation in infected thigh relative to healthy thigh [3]: 2.3 – 2.6 times

Oc1cc(Cl)ccc1Oc1ccc(Cl)cc1Cl [triclosan]
absorption from the gastrointestinal tract [4]: readily absorbed

AFN-1252
AUC/MIC [5]: 20
